Source: paper PMC10165932, “Tripeptides conjugated with thiosemicarbazones: new inhibitors of tyrosinase for cosmeceutical use” (Journal of Enzyme Inhibition and Medicinal Chemistry, 2023)
“And” between values parts separate entries of the source, which are not always exact repeats. Identical values can stand only once. Like-named read-outs stand apart in the source and are kept apart here. Where a SMILES comes first, the peptide text is derived from it.

Legend:
mushroom tyrosinase [1] = molecular target: T1, mushroom tyrosinase (Agaricus bisporus, UniProt C7FF04); test: Tyrosinase inhibition assay (diphenolase activity, L-DOPA substrate); assay type: biochemical; details: for IC50 / tyrosinase inhibition (in words): diphenolase activity; for IC50: L-DOPA 5 mM; for tyrosinase inhibition (in words): tested range of concentrations
T1 sequence (C7FF04 1-392): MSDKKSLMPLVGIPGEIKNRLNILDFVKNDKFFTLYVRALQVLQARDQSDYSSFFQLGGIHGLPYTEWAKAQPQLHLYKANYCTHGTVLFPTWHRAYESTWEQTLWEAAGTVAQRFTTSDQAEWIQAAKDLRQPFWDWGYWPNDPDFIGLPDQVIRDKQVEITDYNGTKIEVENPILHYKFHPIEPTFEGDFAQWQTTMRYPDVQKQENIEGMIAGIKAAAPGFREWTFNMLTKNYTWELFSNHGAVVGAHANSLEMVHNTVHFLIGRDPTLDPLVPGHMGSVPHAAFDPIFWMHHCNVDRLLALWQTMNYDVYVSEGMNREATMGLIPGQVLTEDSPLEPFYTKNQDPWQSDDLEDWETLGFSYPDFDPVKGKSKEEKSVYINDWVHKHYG
Method: The tyrosinase enzymatic assay was performed according to the protocol described previously in our papers[46–48] using L-3,4-dihydroxyphenylalanine (L-DOPA) (Sigma-Aldrich, Germany) as a substrate. L-DOPA was dissolved in an aqueous 0.15 mM phosphoric(V) acid solution, preventing its oxidation. […] Tyrosinase powder (Sigma-Aldrich, Germany) was dissolved in the assay buffer to obtain a concentration of 50,000 units/mL. This stock solution was divided into 50 μL aliquots, each one containing 2500 units of tyrosinase, and stored at −80 °C. Shortly before the assay, one of the aliquots was reconstituted in the assay buffer up to 3000 μL. First, 10 μL of the diluted enzyme solution was preincubated with samples at various concentrations for 5 min at 25 °C. Afterwards, 20 μL of L-DOPA solution was added.
The screening of tyrosinase activity of the synthetic compounds was performed according to the procedure previously reported in our articles.[46–48] As reported in most of the research dealing with tyrosinase inhibition, we employed mushroom tyrosinase, due to the lack of information and the limited availability of human tyrosinase.[59]^,[60] All the compounds were evaluated at different concentrations after incubation with tyrosinase in solution for 5 min at room temperature. Afterwards, the substrate L-DOPA was added to start the enzymatic reaction. The absorbance provided by the colourful derivative, dopachrome, was measured every 5 s for 10 min in order to monitor the progress of the reaction over time. […] (1) % of ENZactivity=Sampleslope/ECslope×100

[2] = system: B16F0 murine melanoma cell line; test: cells; assay type: cell-based; details: 48 h
Method: B16F0 murine melanoma cell line was cultured in DMEM (Biowest, Nuaillé, France) medium supplemented with 100 U/ml streptomycin (Sigma-Aldrich, Taufkirchen, Germany), 100 U/ml penicillin (Sigma-Aldrich, Taufkirchen, Germany), and 10% foetal bovine serum (Sigma-Aldrich, Taufkirchen, Germany). Cells were maintained in 5% CO2 at 37 °C. Cells viability was estimated by MTT colorimetric assay as described by Bellei et al.[51] B16 cells were seeded into 96-well plate (4 × 10^3 cells/well) and incubated in the presence of the investigated compounds at various concentrations (1000, 400, 100, 40, 10, 1, 0.1 μM) for 48 h. Kojic acid and DMSO were used as controls. MTT was added into wells (0.625 mg/ml, Sigma-Aldrich, Taufkirchen, Germany) for the last 4 h. Then lysing buffer was added to dissolve insoluble formazan. The absorbance was measured (λ = 570 nm) using Thermo Lab Multiscan RC microplate reader.

[3] = system: B16F0 murine melanoma cell line; test: cells; assay type: cell-based; details: for % Of melanogenesis inhibition at a specific inhibitor concentration / inhibition at 10 µM / inhibition at 40 µM: B16F0, 48 h; for inhibition at 10 µM / inhibition at 40 µM: read-out: % Of melanogenesis inhibition at a specific inhibitor concentration
Method: The effect of the synthetic compounds on melanogenesis inhibition was performed in B16F0 murine melanoma cell line. The mouse model of human skin is often employed in skin biology and cancer research due to numerous similarities.[62] B16F0 murine melanoma cell line shares most of the melanogenesis with human melanocytes. Therefore, it is the proper model for screening the effect of potential inhibitors on melanogenesis.[63]

mushroom tyrosinase [4] = molecular target: T1, mushroom tyrosinase; details: cited from earlier work; for tyrosinase inhibition (in words): previous paper
[5] = system: B16F0 murine melanoma cell line; set-up: method as in PMID 30248509; details: previous paper; read-out: IC50 value for melanogenesis; cited from earlier work
[6] = n = 3, read-out: The maximum percentage of inhibition reached for poor inhibitors
[7] = Mus musculus, B16F0, MTT, n = 3, read-out: IC50 of cell proliferation
[8] = Mus musculus, B16F0, n = 3, read-out: IC50 of melanin production

Row | IC50 (mushroom tyrosinase [1]; n = 3) | IC50 [2] | IC50 ([3]; 24 h) | inhibition at 250 µM (mushroom tyrosinase [1]; [6]) | Structure (SMILES) | % Of melanogenesis inhibition at a specific inhibitor concentration ([3]; 10 µM) | % Of melanogenesis inhibition at a specific inhibitor concentration ([3]; 40 µM) | further results
1 | 26.1 ± 9 µM | 83.7 µM | 145 µM |  | C/C(=N\NC(N)=S)c1ccc(C(=O)N[C@@H](Cc2ccccc2)C(=O)N[C@@H](Cc2ccc(O)cc2)C(=O)N[C@@H](Cc2ccc(O)cc2)C(=O)O)cc1 [Compound 14, TSC3-FYY-OH] | 0% | 4% | 
2 | > 150 µM | 49.8 µM | 162 µM | 62% | C/C(=N\NC(N)=S)c1ccc(C(=O)N[C@@H](Cc2ccccc2)C(=O)N[C@@H](Cc2ccccc2)C(=O)N[C@@H](Cc2ccc(O)cc2)C(=O)O)cc1 [Compound 13, TSC3-FFY-OH] | 0% | 3% | 
3 |  | 77.2 µM |  | 36% | CC(C(=O)N[C@@H](Cc1ccccc1)C(=O)N[C@@H](Cc1ccc(O)cc1)C(=O)N[C@@H](Cc1ccc(O)cc1)C(=O)O)c1cccc(C(=NNC(N)=S)c2ccccc2)c1 (mixture of isomers) [Compound 11, TSC2-FYY-OH] | 0% | 0% | 
4 | 25.1 ± 2.5 µM | 67.5 µM | 67.1 µM |  | C/C(=N\NC(N)=S)c1ccc(C(=O)N[C@@H](Cc2ccccc2)C(=O)N[C@@H](Cc2c[nH]c3ccccc23)C(=O)N[C@@H](Cc2ccc(O)cc2)C(=O)O)cc1 [Compound 15, TSC3-FWY-OH] | 5% | 20% | 
5 | > 150 µM | 72.8 µM | 138 µM | 77% | NC(=S)N/N=C/c1ccc(C(=O)N[C@@H](Cc2ccccc2)C(=O)N[C@@H](Cc2ccccc2)C(=O)N[C@@H](Cc2ccc(O)cc2)C(=O)O)cc1 [Compound 7, TSC1-FFY-OH] | 1% | 10% | 
6 | 6.5 µM and 6.57 µM | 99 µM | 158 µM |  | NC(=S)N/N=C/c1ccc(C(=O)N[C@@H](Cc2ccccc2)C(=O)N[C@@H](Cc2ccc(O)cc2)C(=O)N[C@@H](Cc2ccc(O)cc2)C(=O)O)cc1 [Compound 8, TSC1-FYY-OH] | 3% | 12% | 

The next lines start with the molecule.

Row | Structure (SMILES) | IC50 (mushroom tyrosinase [1]; n = 3) | IC50 [2] | IC50 ([3]; 24 h) | inhibition at 250 µM (mushroom tyrosinase [1]; [6]) | % Of melanogenesis inhibition at a specific inhibitor concentration ([3]; 10 µM) | % Of melanogenesis inhibition at a specific inhibitor concentration ([3]; 40 µM) | further results
7 | CC(C(=O)O)c1cccc(/C(=N\NC(N)=S)c2ccccc2)c1 (centres unmarked) [Compound 2, thiosemicarbazone of ketoprofen] | > 150 µM |  |  |  |  |  | inhibition at 150 µM (mushroom tyrosinase [1]; at 150 μM, n = 3, read-out: The maximum percentage of inhibition reached for poor inhibitors): 34%; tyrosinase inhibition (in words) (mushroom tyrosinase [1]): no significant inhibition towards tyrosinase; IC50 [2, 7]: 71.5 µM; inhibition at 10 µM ([3]; Mus musculus, 10 µM): 28%; inhibition at 40 µM ([3]; Mus musculus, 40 µM): 77%; IC50 [3, 8]: 19.8 µM
8 | CC(C(=O)N[C@@H](Cc1ccccc1)C(=O)N[C@@H](Cc1ccccc1)C(=O)N[C@@H](Cc1ccc(O)cc1)C(=O)O)c1cccc(C(=NNC(N)=S)c2ccccc2)c1 (mixture of isomers) [Compound 10, TSC2-FFY-OH] |  | 77.4 µM | 146 µM | 45% | 0% | 4% | 
9 | CC(C(=O)N[C@@H](Cc1ccccc1)C(=O)N[C@@H](Cc1c[nH]c2ccccc12)C(=O)N[C@@H](Cc1ccc(O)cc1)C(=O)O)c1cccc(C(=NNC(N)=S)c2ccccc2)c1 (mixture of isomers) [Compound 12, TSC2-FWY-OH] |  | 63.2 µM | 89.9 µM | 50% | 0% | 3% | 
10 | NC(=S)N/N=C(\Cc1ccccc1)c1ccccc1 [thiosemicarbazone of (E)-2-phenylacetophenone] |  |  |  |  |  |  | tyrosinase inhibition (in words) (mushroom tyrosinase [4]): did not inhibit tyrosinase at all; IC50 [5]: < 2 µM
11 | NC(=S)NN=C(c1ccccc1)c1ccccc1 [thiosemicarbazone of benzophenone] |  |  |  |  |  |  | tyrosinase inhibition (in words) (mushroom tyrosinase [4]): efficient tyrosinase inhibitor; IC50 [5]: < 2 µM
12 | CC(=O)N[C@@H](Cc1ccccc1)C(=O)N[C@@H](Cc1ccc(O)cc1)C(=O)N[C@@H](Cc1ccc(O)cc1)C(=O)O [Compound 5, Ac-FYY-OH] (Ac-Phe-Tyr-Tyr-OH) |  | 96.6 µM | 175 µM |  | 0% | 2% | tyrosinase inhibition (in words) (mushroom tyrosinase [1]): no significant inhibition was observed in the tested range of concentrations
13 | CC(=O)N[C@@H](Cc1ccccc1)C(=O)N[C@@H](Cc1c[nH]c2ccccc12)C(=O)N[C@@H](Cc1ccc(O)cc1)C(=O)O [Compound 6, Ac-FWY-OH] (Ac-Phe-Trp-Tyr-OH) |  | 81 µM | 141 µM |  | 0% | 4% | tyrosinase inhibition (in words) (mushroom tyrosinase [1]): no significant inhibition was observed in the tested range of concentrations
14 | CC(=O)N[C@@H](Cc1ccccc1)C(=O)N[C@@H](Cc1ccccc1)C(=O)N[C@@H](Cc1ccc(O)cc1)C(=O)O [Compound 4, Ac-FFY-OH] (Ac-Phe-Phe-Tyr-OH) |  | 106 µM | 246 µM |  | 1% | 3% | IC50 (mushroom tyrosinase [4]; tyrosinase inhibition, read-out: IC50 found in the literature): 240 µM; tyrosinase inhibition (in words) (mushroom tyrosinase [1]): no significant inhibition was observed in the tested range of concentrations
15 | NC(=S)N/N=C/c1ccc(C(=O)N[C@@H](Cc2ccccc2)C(=O)N[C@@H](Cc2c[nH]c3ccccc23)C(=O)N[C@@H](Cc2ccc(O)cc2)C(=O)O)cc1 [Compound 9, TSC1-FWY-OH] | 6.5 µM and 6.66 µM | 77.1 µM | 151 µM |  | 0% | 11% | 
16 | O=c1cc(CO)occ1O [Kojic acid, reference compound] |  |  |  |  |  |  | IC50 [2, 7]: 162 µM; inhibition at 10 µM ([3]; Mus musculus, 10 µM): 1%; inhibition at 40 µM ([3]; Mus musculus, 40 µM): 12%; IC50 [3, 8]: 121 µM
